Laboratory results from paper PMC10712727, “Safety, Tolerability, and Pharmacokinetics of Senaparib, a Novel PARP1/2 Inhibitor, in Chinese Patients With Advanced Solid Tumors: A Phase I Trial” (The Oncologist, 2023).

Tested on: patients with advanced solid tumors
Experiment: Safety: treatment-emergent and senaparib-related adverse events graded per NCI CTCAE v4.03
Type: in vivo
Method: This phase I, open-label, multicenter, dose-escalation, and dose-expansion study was conducted at three national clinical institutions in China. […] At baseline, all patients enrolled in the dose-escalation phase had to have at least one evaluable lesion, and those in the dose-expansion period had to have at least one measurable lesion, according to Response Evaluation Criteria in Solid Tumors version 1.1 (RECIST v1.1).[16] Entry to the dose-expansion cohort required the presence of a BRCA mutation, with the exception of patients with ovarian carcinoma, fallopian tube carcinoma, and primary peritoneal carcinoma. Full study eligibility criteria are provided in Supplementary Table S1.
Dose escalation was conducted using a modified Fibonacci 3 + 3 method (Supplementary Fig. S1).[17] Patients were administered oral senaparib from a planned starting dose of 2 mg once daily (QD), with preliminary dose escalation to 120 mg via nine dose groups, in order of their entry into the study. At a given dose level, each patient received a single dose of senaparib followed by a 7-day washout period. They then entered a continuous dosing period to confirm the safety and PK profile, in which they received senaparib QD from day 1 to day 21 of each 3-week cycle. Progression to the next higher dose required approval from the Data Safety Monitoring Committee (DSMC) upon review of the safety and PK data of the previous dose. A 50-mg twice-daily (BID) dosing group was added (planned enrollment, n = 6 patients) based on a DSMC review of the safety, PK, and efficacy analysis of the completed QD dose groups in the phase I clinical trial of senaparib dose escalation in Australia (NCT03507543), which commenced prior to the start of this trial.
The dose-expansion period included 3 populations: dose groups in which at least one patient achieved complete response (CR) or partial response (PR) per RECIST v1.1[16] and 1 dose group higher (evaluated for safety), as well as the dose group at the maximum tolerated dose (MTD)/recommended phase II dose (RP2D). Each of these groups included those patients in the respective dose-escalation group plus a planned additional 10 patients (approximately 20 patients in the MTD/RP2D group) with BRCA^mut+ solid tumors (ovarian, breast, or prostate cancer were preferred, and ovarian cancer could be BRCA wild type). Patients received senaparib monotherapy orally QD or BID (50-mg dose only) over each 3-week cycle until disease progression or unacceptable toxicity.
DLTs were predefined toxicities (Supplementary Table S2) recorded over the 7 days following the single-dose administration of senaparib and during the first treatment cycle (day 1-day 21) for each dose group in the dose-escalation period only. The MTD was defined as the maximum dose at which ≤1/6 patients experienced a DLT. Senaparib PK parameters were derived from blood samples collected from patients after the single administration, and at regular intervals during the first cycle of the dose-escalation and dose-expansion periods. Plasma concentrations of senaparib were determined using high-performance liquid chromatography-tandem mass spectrometry. Tumor response was assessed every 6 weeks per RECIST v1.1,[16] recording objective response rate (ORR), disease control rate (DCR), duration of response (DOR), and progression-free survival (PFS) by dose level for all patients and for those harboring BRCA^mut+ tumors.

O=C(c1cc(Cn2c(=O)[nH]c(=O)c3c(F)cccc32)ccc1F)N1CCN(c2ncccn2)CC1 [Senaparib]
ALT increased TRAE, All (2 mg QD n = 1): 0 n (%)
ALT increased TRAE, Gr≥3 (2 mg QD n = 1): 0 n (%)
AST increased TRAE, All (2 mg QD n = 1): 0 n (%)
AST increased TRAE, Gr≥3 (2 mg QD n = 1): 0 n (%)
Anemia TRAE, All (2 mg QD n = 1): 0 n (%)
Anemia TRAE, Gr≥3 (2 mg QD n = 1): 0 n (%)
Any TEAE, All (2 mg QD n = 1): 1 (100) n (%)
Any TEAE, Gr≥3 (2 mg QD n = 1): 1 (100) n (%)
Any TEAE, events (2 mg QD n = 1): 9 n ev
Any TEAE, patients (2 mg QD n = 1): 1 (100) n (%)
Any TRAE, All (2 mg QD n = 1): 1 (100) n (%)
Any TRAE, Gr≥3 (2 mg QD n = 1): 0 n (%)
Appetite decreased TRAE, All (2 mg QD n = 1): 1 (100) n (%)
Appetite decreased TRAE, Gr≥3 (2 mg QD n = 1): 0 n (%)
Asthenia TRAE, All (2 mg QD n = 1): 0 n (%)
Asthenia TRAE, Gr≥3 (2 mg QD n = 1): 0 n (%)
Blood bilirubin increased TRAE, All (2 mg QD n = 1): 0 n (%)
Blood bilirubin increased TRAE, Gr≥3 (2 mg QD n = 1): 0 n (%)
Blood creatinine increased TRAE, All (2 mg QD n = 1): 0 n (%)
Blood creatinine increased TRAE, Gr≥3 (2 mg QD n = 1): 0 n (%)
Hypokalemia TRAE, All (2 mg QD n = 1): 1 (100) n (%)
Hypokalemia TRAE, Gr≥3 (2 mg QD n = 1): 0 n (%)
Nausea TRAE, All (2 mg QD n = 1): 0 n (%)
Nausea TRAE, Gr≥3 (2 mg QD n = 1): 0 n (%)
Neutrophil count decreased TRAE, All (2 mg QD n = 1): 0 n (%)
Neutrophil count decreased TRAE, Gr≥3 (2 mg QD n = 1): 0 n (%)
Platelet count decreased TRAE, All (2 mg QD n = 1): 0 n (%)
Platelet count decreased TRAE, Gr≥3 (2 mg QD n = 1): 0 n (%)
SAEs, events (2 mg QD n = 1): 1 n ev
SAEs, patients (2 mg QD n = 1): 1 (100) n (%)
TEAE Grade ≥3, events (2 mg QD n = 1): 1 n ev
TEAE Grade ≥3, patients (2 mg QD n = 1): 1 (100) n (%)
TEAEs leading to death, events (2 mg QD n = 1): 0 n ev
TEAEs leading to death, patients (2 mg QD n = 1): 0 n (%)
TEAEs leading to dose discontinuation, events (2 mg QD n = 1): 0 n ev
TEAEs leading to dose discontinuation, patients (2 mg QD n = 1): 0 n (%)
TEAEs leading to dose interruption, events (2 mg QD n = 1): 0 n ev
TEAEs leading to dose interruption, patients (2 mg QD n = 1): 0 n (%)
TEAEs leading to dose reduction, events (2 mg QD n = 1): 0 n ev
TEAEs leading to dose reduction, patients (2 mg QD n = 1): 0 n (%)
TRAEs Grade ≥3, events (2 mg QD n = 1): 0 n ev
TRAEs Grade ≥3, patients (2 mg QD n = 1): 0 n (%)
TRAEs, events (2 mg QD n = 1): 6 n ev
TRAEs, patients (2 mg QD n = 1): 1 (100) n (%)
Vomiting TRAE, All (2 mg QD n = 1): 0 n (%)
Vomiting TRAE, Gr≥3 (2 mg QD n = 1): 0 n (%)
WBC decreased TRAE, All (2 mg QD n = 1): 0 n (%)
WBC decreased TRAE, Gr≥3 (2 mg QD n = 1): 0 n (%)
ALT increased TRAE, All (5 mg QD n = 3): 0 n (%)
ALT increased TRAE, Gr≥3 (5 mg QD n = 3): 0 n (%)
AST increased TRAE, All (5 mg QD n = 3): 0 n (%)
AST increased TRAE, Gr≥3 (5 mg QD n = 3): 0 n (%)
Anemia TRAE, All (5 mg QD n = 3): 2 (66.7) n (%)
Anemia TRAE, Gr≥3 (5 mg QD n = 3): 1 (33.3) n (%)
Any TEAE, All (5 mg QD n = 3): 3 (100) n (%)
Any TEAE, Gr≥3 (5 mg QD n = 3): 3 (100) n (%)
Any TEAE, events (5 mg QD n = 3): 28 n ev
Any TEAE, patients (5 mg QD n = 3): 3 (100) n (%)
Any TRAE, All (5 mg QD n = 3): 3 (100) n (%)
Any TRAE, Gr≥3 (5 mg QD n = 3): 1 (33.3) n (%)
Appetite decreased TRAE, All (5 mg QD n = 3): 1 (33.3) n (%)
Appetite decreased TRAE, Gr≥3 (5 mg QD n = 3): 0 n (%)
Asthenia TRAE, All (5 mg QD n = 3): 1 (33.3) n (%)
Asthenia TRAE, Gr≥3 (5 mg QD n = 3): 0 n (%)
Blood bilirubin increased TRAE, All (5 mg QD n = 3): 1 (33.3) n (%)
Blood bilirubin increased TRAE, Gr≥3 (5 mg QD n = 3): 0 n (%)
Blood creatinine increased TRAE, All (5 mg QD n = 3): 0 n (%)
Blood creatinine increased TRAE, Gr≥3 (5 mg QD n = 3): 0 n (%)
Hypokalemia TRAE, All (5 mg QD n = 3): 0 n (%)
Hypokalemia TRAE, Gr≥3 (5 mg QD n = 3): 0 n (%)
Nausea TRAE, All (5 mg QD n = 3): 1 (33.3) n (%)
Nausea TRAE, Gr≥3 (5 mg QD n = 3): 0 n (%)
Neutrophil count decreased TRAE, All (5 mg QD n = 3): 1 (33.3) n (%)
Neutrophil count decreased TRAE, Gr≥3 (5 mg QD n = 3): 0 n (%)
Platelet count decreased TRAE, All (5 mg QD n = 3): 1 (33.3) n (%)
Platelet count decreased TRAE, Gr≥3 (5 mg QD n = 3): 0 n (%)
SAEs, events (5 mg QD n = 3): 0 n ev
SAEs, patients (5 mg QD n = 3): 0 n (%)
TEAE Grade ≥3, events (5 mg QD n = 3): 5 n ev
TEAE Grade ≥3, patients (5 mg QD n = 3): 3 (100) n (%)
TEAEs leading to death, events (5 mg QD n = 3): 0 n ev
TEAEs leading to death, patients (5 mg QD n = 3): 0 n (%)
TEAEs leading to dose discontinuation, events (5 mg QD n = 3): 0 n ev
TEAEs leading to dose discontinuation, patients (5 mg QD n = 3): 0 n (%)
TEAEs leading to dose interruption, events (5 mg QD n = 3): 0 n ev
TEAEs leading to dose interruption, patients (5 mg QD n = 3): 0 n (%)
TEAEs leading to dose reduction, events (5 mg QD n = 3): 0 n ev
TEAEs leading to dose reduction, patients (5 mg QD n = 3): 0 n (%)
TRAEs Grade ≥3, events (5 mg QD n = 3): 1 n ev
TRAEs Grade ≥3, patients (5 mg QD n = 3): 1 (33.3) n (%)
TRAEs, events (5 mg QD n = 3): 13 n ev
TRAEs, patients (5 mg QD n = 3): 3 (100) n (%)
Vomiting TRAE, All (5 mg QD n = 3): 0 n (%)
Vomiting TRAE, Gr≥3 (5 mg QD n = 3): 0 n (%)
WBC decreased TRAE, All (5 mg QD n = 3): 1 (33.3) n (%)
WBC decreased TRAE, Gr≥3 (5 mg QD n = 3): 0 n (%)
ALT increased TRAE, All (10 mg QD n = 3): 1 (33.3) n (%)
ALT increased TRAE, Gr≥3 (10 mg QD n = 3): 0 n (%)
AST increased TRAE, All (10 mg QD n = 3): 1 (33.3) n (%)
AST increased TRAE, Gr≥3 (10 mg QD n = 3): 0 n (%)
Anemia TRAE, All (10 mg QD n = 3): 1 (33.3) n (%)
Anemia TRAE, Gr≥3 (10 mg QD n = 3): 0 n (%)
Any TEAE, All (10 mg QD n = 3): 3 (100) n (%)
Any TEAE, Gr≥3 (10 mg QD n = 3): 0 n (%)
Any TEAE, events (10 mg QD n = 3): 10 n ev
Any TEAE, patients (10 mg QD n = 3): 3 (100) n (%)
Any TRAE, All (10 mg QD n = 3): 3 (100) n (%)
Any TRAE, Gr≥3 (10 mg QD n = 3): 0 n (%)
Appetite decreased TRAE, All (10 mg QD n = 3): 1 (33.3) n (%)
Appetite decreased TRAE, Gr≥3 (10 mg QD n = 3): 0 n (%)
Asthenia TRAE, All (10 mg QD n = 3): 0 n (%)
Asthenia TRAE, Gr≥3 (10 mg QD n = 3): 0 n (%)
Blood bilirubin increased TRAE, All (10 mg QD n = 3): 0 n (%)
Blood bilirubin increased TRAE, Gr≥3 (10 mg QD n = 3): 0 n (%)
Blood creatinine increased TRAE, All (10 mg QD n = 3): 0 n (%)
